Measured values reported in US20240358865A1, “QUINOLINYL AND PRIDINYL CONTAINING COMPOUNDS TARGETING ON ALPHA-SYNUCLEIN FOR NEUROLOGICAL DISEASES” (Washington University, priority 2023, published 2024).
Entries after “also recorded” stand apart in the source; their conditions may differ.

Key:
alpha-synuclein fibrils = alpha-synuclein fibrils (Homo sapiens, UniProt P37840); experiment: Competitive binding to alpha-synuclein fibrils vs [3H]BF2846 (site 9); conditions: for Ki / Ki (nM), in a-syn fibrils v.s. [3H]BF2846: alpha-synuclein fibrils, radioligand [3H]BF2846, binding site 9; for Ki: read-out: Ki (nM), in a-syn fibrils v.s. [3H]BF2846; for max % inh_site9: maximal inhibition of [3H]BF2846 binding to alpha-synuclein fibrils
AD brain tissue = AD brain tissue (Homo sapiens, UniProt P05067); experiment: Competitive binding in AD brain tissue vs [3H]PiB; conditions: for Ki: AD brain tissue, radioligand [3H]PiB; for max % Inh_PiB: maximal inhibition of [3H]PiB binding in AD brain tissue
AD brain tissue, sequence (P05067 whole entry): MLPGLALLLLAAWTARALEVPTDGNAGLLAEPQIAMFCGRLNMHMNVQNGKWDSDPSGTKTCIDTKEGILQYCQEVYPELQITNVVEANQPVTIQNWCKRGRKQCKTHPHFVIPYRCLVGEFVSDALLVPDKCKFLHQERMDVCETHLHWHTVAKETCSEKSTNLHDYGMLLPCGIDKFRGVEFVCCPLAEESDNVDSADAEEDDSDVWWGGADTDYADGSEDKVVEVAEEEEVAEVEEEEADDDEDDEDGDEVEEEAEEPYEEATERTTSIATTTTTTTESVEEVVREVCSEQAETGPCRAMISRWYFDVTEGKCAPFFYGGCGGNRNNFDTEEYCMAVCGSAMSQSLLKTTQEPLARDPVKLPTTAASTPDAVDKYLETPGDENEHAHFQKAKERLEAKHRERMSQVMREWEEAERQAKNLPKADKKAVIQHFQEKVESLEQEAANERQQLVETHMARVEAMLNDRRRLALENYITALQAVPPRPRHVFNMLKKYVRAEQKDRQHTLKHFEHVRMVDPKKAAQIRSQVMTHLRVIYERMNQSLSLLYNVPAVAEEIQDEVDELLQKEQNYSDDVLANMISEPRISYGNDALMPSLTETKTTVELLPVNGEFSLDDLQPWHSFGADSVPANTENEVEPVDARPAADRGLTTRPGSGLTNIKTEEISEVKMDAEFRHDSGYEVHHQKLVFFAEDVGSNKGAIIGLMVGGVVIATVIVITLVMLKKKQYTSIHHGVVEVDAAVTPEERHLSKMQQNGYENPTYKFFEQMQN
Description: The binding potency for Abeta was determined using [^3H]PIB for these new compounds (FIG. 5B).
If the Ki value is smaller, these compounds are potent for AD brain tissue binding and are not selective for alpha-synuclein over abeta, or PD over AD.

[1] = target: T1, α-synuclein fibrils amplified from PD tissue (Homo sapiens, UniProt P37840); experiment: Direct radioligand (homologous competitive) binding assay; conditions: read-out: binding affinity for α-synuclein fibrils
T1 construct: from tissue; host or cells: fibrils amplified from PD tissue (Banner amplified fibrils are mentioned)
Description: (§1) The radiosynthesis of [^18F]TZ83-41 was accomplished by a two-step procedure with [^18F]fluoroethyl ptoluenesulfonate as a prosthetic group, followed by O-alkylation to the quinolinyl-containing phenol group. [^18F]TZ80-156 was synthesized starting from the allylic bromide precursor via nucleophilic halogen exchange (halex) reaction with [^18F]fluoride, followed by deprotection of the N-Boc amine with trifluoroacetic acid. Homologous competitive binding assays with α-synuclein fibrils amplified from PD tissue were used to determine the direct binding affinity of the two radioligands. The biodistribution study was performed in male Sprague Dawley (SD) rats at four time points (5, 30, 60 min and 120 min) after intravenous injection of the radiotracer. The uptake of radioactivity was calculated as percentage injected dose per gram (% ID/gram). Both radiotracers were evaluated with microPET imaging using a Focus 220 microPET scanner to collect dynamic scans after intravenous injection into male macaques (NHP) (FIGS. 1A-1C).
(§2) The radioligands [^18F]TZ83-41 and [^18F]TZ80-156 were successfully produced in 17±3% (n=2) and 25±5% (n=2) radiochemical yield (RCY) respectively with high molar activity (>37 GBq/μmol) and high radiochemical purity (>99%), at the end of synthesis (EOS).

[2] = PET studies in the brains of nonhuman primates (Example 3); type: in vivo
Description: A PET study in nonhuman primates found uptake of [^11C]TZ61-84 (FIG. 3C).
Another PET study of [^18F]TZ80-156 and [^18F]TZ83-41 in nonhuman primates also found uptake (FIG. 4A).
A further PET study also found uptake of several additional compounds, including [^18F]TZ80-156 and [^18F]TZ83-41 (FIG. 4B).

[3] = Biodistribution study in rats; type: in vivo, Sprague Dawley (SD) rats
Description: as §1

[4] = MicroPET imaging of the macaque (NHP) brain; type: in vivo; conditions: for crossing of the blood brain barrier: NHP; for brain standardized uptake value (SUV) maximum: NHP brain, intravenous; for brain standardized uptake value (SUV) maximum / washout from the NHP brain: microPET
Description: as §1

[5] = system: Alzheimer's disease brain tissue homogenate; experiment: Direct radioligand binding to Alzheimer's disease brain tissue homogenate
Description: as §2

[6] = NHP plasma radiometabolite study (column-switching HPLC); type: in vivo, Monkey; conditions: for Peak B (%) (parental tracer): monkey plasma
Description: Monkey arterial/venous blood samples were collected at various intervals during the PET scans to measure the radio metabolite profile using the column-switching HPLC system equipped with an Oasis HLB online capture column (80 Å, 15 μm, 3.9 mm×20 mm, Waters 186001414) with Universal Guard Column holder (WAT046910, Waters) and a Agilent ZORBAX Eclipse XDB-C18 analytical column (5 μm, 250×4.6 mm, Part No. 990967-902), following a published protocol (Hilton J, et al., Nucl Med Biol. 2000 August; 27(6):627-30; Cai Z, et al., ACS Chem Neurosci. 2020 Feb. 19; 11(4):592-603).
Briefly, blood samples (vary with volume, 4-8 mL) were collected at 5, 15, 30, 60, 90 min post-injection of radiotracer. The whole blood was centrifuged at RCF 1300 g for 5 min to separate the blood cells and obtain plasma. Clean supernatant plasma was collected and added into solid urea to eliminate competitive protein binding and to allow complete backflush of the parent compound and metabolites from the capture column to analytical column. Typically, 3.2 mL of plasma is added to 2.12 g of urea to yield a final concentration of 8 M urea and a final volume of about 4.5 mL. The plasma-urea mix was then filtered through a Whatman® GD/X syringe filters (pore size 1 μm, diam. 13 mm, WHA68841310, Sigma, USA) and injected into a 5 mL HPLC loop concatenating with the capture column, which eluted with 1% acetonitrile in ammonium formate (0.1 M, pH=4.5) at 2 mL/min for 4 min. The enriched radioactivity in the short capture column was reverse flowed into an analytical C18 column with 60% acetonitrile and 40% ammonium formate (0.1 M, pH=4.5) at a flow rate of 1.0 mL/min for 25 min.
The radioactive peak B is the parental [^18F]TZ83-41 tracer with retention time of 14.3 min; one radiometabolite is peak A at 6.8 min (FIG. 2A and FIG. 2B).

SMILES | Ki (alpha-synuclein fibrils) [nM] | max % inh_site9 (alpha-synuclein fibrils) | Ki (AD brain tissue) [nM] | max % Inh_PiB (AD brain tissue) [%] | further results
COc1ccc(Nc2ccc3cc(OCc4ccncc4)ccc3n2)cn1 [TZ80-42] | 16.6 ± 22.6 | 70% | 72 ± 56 | 60 | 
COc1ccc(Nc2ccc3cc(O)ccc3n2)cn1 [TZ61-23] | 1.56 | 20% | 36 ± 37 | 30 | 
COc1ccc(Nc2ccc3cc(OCc4cccnc4)ccc3n2)cn1.Cl [TZ80-66-B] | 30.4 ± 42.1 | 70% | 25.2 ± 21.7 | 80 | 
COc1ccc(Nc2ccc3cc(OC(F)F)ccc3n2)cn1 [TZ80-37] | 22.9 ± 28.2 | 60% | 99 ± 90 | 70 | 
COc1ccc(Nc2ccc3cc(Br)ccc3n2)cn1 [TZ64-105] | 18.7 | 50% | > 1000 |  | 
COc1ccc(Nc2nc3ccccc3cc2N)cn1 [TZ64-73] | 4.6 | 20% | 6.6 ± 2.7 | 30 | 
COc1ccc(Nc2ccc3ccc(N)cc3n2)cn1 [TZ64-87] | 3.07 | 50% | 36 ± 30 | 30 | 
COc1ccc2nc(Nc3ccnc(OC)c3)ccc2c1.Cl [TZ80-59-B] | 17.9 ± 31.7 | 70% | 108 ± 73 | 100 | 
COc1ccc(Nc2ccc3cc(OC/C=C/I)ccc3n2)cn1 [TZ61-84] | 21.5 ± 34 | 100% | 13.2 ± 17.2 | 90 | 
CCc1ccc(Nc2ccc3cc(OCCN4CCCCC4)ccc3n2)cn1 [TZ80-30] | 14.3 ± 25.4 | 100% | 158 ± 36 | 80 | 
COc1ccc(Nc2ccc3cc(OC/C=C/C[18F])ccc3n2)cn1 [[^18F]TZ80-156] |  |  |  |  | Kd [1]: 35 nM; brain uptake in PET study [2]: found uptake; bone uptake ([3]; 5 min): 0.45; brain uptake ([3]; 5 min): 0.86 % ID/gram; bone uptake ([3]; 30 min): 2.18; brain uptake ([3]; 30 min): 0.25 % ID/gram; brain uptake ([3]; 60 min): 0.16 % ID/gram; bone uptake ([3]; 120 min): 3.09; defluorination ([3]; judged from bone uptake): Significant defluorination; crossing of the blood brain barrier [4]: crossed the blood brain barrier; brain standardized uptake value (SUV) maximum [4]: ~2.0; washout from the NHP brain [4]: favorable washout rate; also recorded: favorable washout kinetics; binding to Alzheimer's disease brain tissue homogenate [5]: little to no binding
CCCOc1ccc(Nc2ccc3cc(OCC[18F])ccc3n2)cn1 [[^18F]TZ83-41] |  |  |  |  | Kd [1]: 7.6 nM; brain uptake in PET study [2]: found uptake; brain uptake ([3]; from 5 to 120 min): 0.71˜0.24 % ID/gram; crossing of the blood brain barrier [4]: crossed the blood brain barrier; brain standardized uptake value (SUV) maximum [4]: ~2.0; washout from the NHP brain [4]: favorable washout rate; also recorded: favorable washout kinetics; also recorded: suitable brain washout pharmacokinetics; brain uptake (in words) ([4]; nonhuman primate brain imaging): high brain uptake; Peak B (%) (parental tracer) ([6]; 5 min post-injection): 92%; Peak B (%) (parental tracer) ([6]; 15 min post-injection): 69%; Peak B (%) (parental tracer) ([6]; 30 min post-injection): 59%; Peak B (%) (parental tracer) ([6]; 60 min post-injection): 47%; Peak B (%) (parental tracer) ([6]; 90 min post-injection): 38%; lipophilic radiometabolite entering the brain ([6]; nonhuman primate plasma samples post injection): no lipophilic radiometabolite; binding to Alzheimer's disease brain tissue homogenate [5]: little to no binding
COc1ccc(Nc2ccc3cc(OCCF)ccc3n2)cn1.Cl [TZ80-55] | 26.1 | 70% | > 1000 |  | 
COc1ccc2nc(Nc3ccc(C=O)o3)ccc2c1 [TZ64-91] | 1.4 | 70% | 53 ± 34 | 50 | 

Second part, led by results:

Ki (alpha-synuclein fibrils) [nM] | max % inh_site9 (alpha-synuclein fibrils) | Ki (AD brain tissue) [nM] | max % Inh_PiB (AD brain tissue) [%] | SMILES | further results
15 ± 12.4 | 100% | > 1000 |  | CSc1ccc(Nc2ccc3cc(OC/C=C/I)ccc3n2)cn1 [TZ80-106] | 
24.1 ± 39.7 | 100% | 50 ± 36 | 80 | COc1ccc2nc(Nc3nc4ccc(N(C)C)cc4s3)ccc2c1 [TZ80-83] | 
129 ± 77 |  | 0.19 | 30 | COc1ccc2nc(/C=C/c3nc4ccc(OC)cc4s3)ccc2c1 [TZ90-21] | 
 |  | 46 ± 78 | 70 | COc1ccc2nc(Nc3ccc(-n4cccn4)nc3)ccc2c1 [TZ88-11] | Ki (nM), in a-syn fibrils v.s. [3H]BF2846 (alpha-synuclein fibrils): None
 |  | 5.8 ± 4.3 | 100 | COc1ccc2nc(Nc3ccc4cn[nH]c4c3)ccc2c1 [TZ88-21] | Ki (nM), in a-syn fibrils v.s. [3H]BF2846 (alpha-synuclein fibrils): None
12.5 | 60% | 362 ± 372 | 40 | CCCOc1ccc(Nc2ccc3cc(OCCF)ccc3n2)cn1 [TZ83-41] | 
46.2 ± 39.2 | Shallow | 3.1 ± 2.3 | 100 | COc1ccc2cc(Nc3ccc(OC)nc3)ncc2c1 [TZ90-4] | 
 |  | 90 ± 155 | 90 | COc1ccc2c(c1)CCC(Nc1cc(C)n[nH]1)=N2 [TZ88-7] | Ki (nM), in a-syn fibrils v.s. [3H]BF2846 (alpha-synuclein fibrils): None
14.9 ± 19.1 | 100% | > 1000 |  | COc1ccc(Nc2ccc3cc(OC/C=C/CF)ccc3n2)cn1 [TZ80-156] | 
 |  | 1.6 ± 0.6 | 100 | COc1ccc2nc(Nc3ccc(N4CCOCC4)nc3)ccc2c1 [TZ88-18] | Ki (nM), in a-syn fibrils v.s. [3H]BF2846 (alpha-synuclein fibrils): None
30.1 | 60% | 142 ± 103 | 20 | CC(C)Oc1ccc(Nc2ccc3cc(OCCF)ccc3n2)cn1 [TZ83-39] | 
 | Shallow | 2 ± 2.6 | 100 | COc1ccc(Nc2ccc3cc(OC)ccc3n2)cc1 [TZ90-8] | 
32.8 ± 43.8 | 100% | 15 ± 23.5 | 100 | COc1cccc(COc2ccc3nc(Nc4ccc(OC)nc4)ccc3c2)c1 [TZ80-77] | 
13.3 ± 26.1 | 60% | 354 ± 407 | 40 | CCOc1ccc(Nc2ccc3cc(OCCF)ccc3n2)cn1.Cl [TZ83-40] | 
 |  | > 1000 |  | COc1ccc2nc(Nc3ccc(NC(C)=O)nc3)ccc2c1 [TZ88-27] | Ki (nM), in a-syn fibrils v.s. [3H]BF2846 (alpha-synuclein fibrils): None
34 ± 75.3 |  | 10.8 ± 8.3 | 100 | COc1ccc(Nc2ccc3cc(OCCF)ccc3n2)cn1 [TZ90-3] | 
55.6 | 40% | 7.1 ± 10.5 | 100 | COc1ccc2nc(Nc3cc(-c4ccccc4)n[nH]3)ccc2c1 [TZ88-5] | 
